Experimental data from ChEMBL document CHEMBL5247647, “Phenothiazine-Based LSD1 Inhibitor Promotes T-Cell Killing Response of Gastric Cancer Cells” (J Med Chem, 2023).

Molecular target: Lysine-specific histone demethylase 1A (Homo sapiens, UniProt O60341)
Assay: Inhibition of recombinant LSD1 (unknown origin) expressed in Escherichia coli BL21 (DE3) using H3K4me2 peptide as substrate incubated for 30 mins by fluorescence based microplate reader assay

IC50: 5.14 µM
SMILES: CN(C)CCCN1c2ccccc2Sc2ccc(Cl)cc21 [CHLORPROMAZINE]
